Source: patent US10188617B2, “Modulation of cellular DNA repair activity to intercept malignancy” (THE BOARD OF TRUSTEES OF THE LELAND STANFORD JUNIOR …, priority 2013, dated 2019)
Structures can show the parent of a compound that is named as a salt.

Tests used:
[1] = test system: BER of ODD in SUM149PT cells; assay: High-throughput chemical screen with cell-based DNA repair assay (oxidatively damaged GFP reporter, host-cell reactivation); conditions: for EC50: read-out: EC50 (image analysis), dose-response increase in GFP expression by imaging, 20 μM to 0.3 μM two-fold dilutions; for Priority score (summed priority score): sum of assigned priority scores, range 1-10, 10 = highest priority; for % BER (High) (image analysis): % BER activity relative to negative control at high concentration; for identified as hit in the screen (enhanced BER of ODD): LOPAC1280 library, summed priority score above 1;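 for all read-outs here: SUM149PT cells pretreated 24 h with compound, then given photodynamically oxidized adenoviral GFP reporter, 24 h host-cell reactivation, GFP read as repair, undamaged reporter positive and damaged reporter negative control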
[2] = test system: BER of ODD in SUM149 cells (mutant BRCA1, BER-defective); assay: DNA repair assay (oxidatively damaged GFP reporter gene), follow-up; type: cell-based, human; conditions: for BER compared to the vehicle control (SAR mini-analysis): SUM149PT cells; for repair activity compared to the vehicle control: SUM149
Protocol: (§1) Human breast cancer cell lines that were deficient in BER (HCC1143, MDAMB468, HCC1937, and SUM149) or proficient in BER (BT474 and MCF7) were cultured according to American Type Culture Collection guidelines, with the exception of SUM149, which was cultured according to Asterand plc guidelines. Brca1^+/+ and Brca1^-/- mouse mammary epithelial […] previously described. Cells were treated with DMSO (vehicle control) or acetohexamide or benserazide as indicated for 24 hours at 37° C. and 5% CO2. The DNA repair assay was carried out as described in the examples below. Where indicated, BER (base excision mode of DNA repair) activity was expressed relative to the control (DMSO).

[3] = test system: BER of ODD in MCF7 cells (wild-type BRCA1, BER-proficient); assay: as above; type: cell-based, human; conditions: BER-proficient MCF7 cells
Protocol: as §1

[4] = test system: MCF7 cells transduced with non-targeting control; assay: Soft agar colony formation assay; type: cell-based, human
Text: (§2) […] Colony formation represents tumorigenic potential. Tamoxifen is the current FDA-approved chemoprevention agent for breast cancer and a therapeutically-equivalent dose was used for comparison.
(§3) Benserazide and carbidopa were also both included among the compounds screened for BER-enhancing activity (FIG. 3A-3B). […] Therefore, we first validated our screening data by subjecting the mutant BRCA1-containing SUM149 cell line to the BER assay following pre-treatment with vehicle control or carbidopa.

[5] = test system: MCF7 cells transduced with shRNA to BRCA1; assay: Soft agar colony formation assay; type: cell-based, human
Text: as §2, §3

Compound | EC50 [1] [µM] | Priority score (summed priority score) [1] | other results
Cl.NC(CO)C(=O)NNCc1ccc(O)c(O)c1O (racemic) [Benserazide hydrochloride, DL-Serine 2-(2,3,4-trihydroxybenzyl)hydrazide hydrochloride] | 22.1 | 7 | –
COC(=O)C(N)Cc1ccc(Cl)cc1.Cl (racemic) [DL-p-Chlorophenylalanine methyl ester hydrochloride] | 25.8 | 7 | –
CN(C)CCC(c1ccc(Br)cc1)c1ccccn1.O=C(O)/C=C\C(=O)O (single isomer, unassigned; (+)) [(+)-Brompheniramine maleate] | 27.5 | 7 | % BER (High) (image analysis) ([1]; imaging): 29.4%
Cl.NCCc1ccc(S(=O)(=O)F)cc1 [4-(2-Aminoethyl)benzenesulfonyl fluoride hydrochloride] | 98.7 | 7 | % BER (High) (image analysis) ([1]; imaging): 25.1%
O=c1[nH]c(=O)n([C@H]2C[C@H](O)[C@@H](CO)O2)cc1Br [5-Bromo-2′-deoxyuridine] | 7.27 | 10 | GFP signal in image montage ([1]; preliminary screen, highest concentration tested 18 uM): visible signal similar to that of SUM149PTcells infected with undamaged adGFP; percentage of GFP-positive cells (normalized to Hoechst 33342-positive cells) ([1]; preliminary screen, imaging): dose-response increase in the percentage of GFP-positive cells; GFP intensity (normalized to Hoechst 33342-intensity) ([1]; preliminary screen, plate reading): dose-response increase in GFP intensity
N=c1ccn2c(n1)O[C@H]1[C@H](O)[C@@H](CO)O[C@H]12 [Ancitabine hydrochloride] | 19.8 | 10 | –
Cc1ccc(S(=O)(=O)NC(=O)NC2CCCCC2)cc1 [BA-4] | – | – | BER compared to the vehicle control (SAR mini-analysis) [2]: significantly increased BER; repair compared to vehicle control (SAR mini-analysis) [3]: none of the four analogs significantly increased repair
CCCCNC(=O)NS(=O)(=O)c1ccccc1 [BA-5] | – | – | BER compared to the vehicle control (SAR mini-analysis) [2]: increased BER in these cells but without statistical significance; repair compared to vehicle control (SAR mini-analysis) [3]: none of the four analogs significantly increased repair
CC(C)CCNC(=O)NS(=O)(=O)c1ccccc1 [BA-9] | – | – | BER compared to the vehicle control (SAR mini-analysis) [2]: significantly increased BER; repair compared to vehicle control (SAR mini-analysis) [3]: none of the four analogs significantly increased repair
CC(C)COCC(CN(Cc1ccccc1)c1ccccc1)N1CCCC1 (stereo not drawn) [Bepridil hydrochloride] | 22.7 | 10 | –
CC[N+](C)(C)Cc1ccccc1Br [Bretylium tosylate] | 26.9 | 7 | –
CNc1ccc2oc(C[C@H]3O[C@@]4(CC[C@H]3C)O[C@H]([C@H](C)C(=O)c3ccc[nH]3)[C@H](C)C[C@H]4C)nc2c1C(=O)O [Calcimycin] | 5.14 | 7 | –
C[C@@]12C(=O)OC(=O)[C@]1(C)[C@H]1CC[C@@H]2O1 [Cantharidin] | – | 10 | –
C[C@H](CS)C(=O)N1CCC[C@H]1C(=O)O [Captopril] | 18.8 | 7 | –
CN(C)CCOC(=O)COc1ccc(Cl)cc1 [Centrophenoxine hydrochloride] | 20.4 | 7 | –
Clc1ccccc1C(c1ccccc1)(c1ccccc1)n1ccnc1 [Clotrimazole] | – | 7 | –
CC(=O)O[C@]1(C(C)=O)CC[C@H]2[C@@H]3C=C(Cl)C4=CC(=O)[C@@H]5C[C@@H]5[C@]4(C)[C@H]3CC[C@@]21C [Cyproterone acetate] | 27.8 | 7 | –
Cl.Nc1ccn([C@@H]2O[C@H](CO)[C@@H](O)[C@@H]2O)c(=O)n1 [Cytosine-1-beta-D-arabinofuranoside hydrochloride] | 22.8 | 10 | % BER (High) (image analysis) ([1]; imaging): 18.3%
Cc1cnc(C(=O)NCCc2ccc(S(=O)(=O)NC(=O)NC3CCCCC3)cc2)cn1 [Glipizide, N-(4-[N-(cyclohexylcarbamoyl)sulfamoyl]phenethyl)-5-methylpyrazine-2-carboxamide] | – | 2 | identified as hit in the screen (enhanced BER of ODD) [1]: identified as a hit; BER compared to the vehicle control (SAR mini-analysis) [2]: significantly increased BER; relative BER activity ([2]; relative to the control (DMSO)): 1.22±0.12; repair compared to vehicle control (SAR mini-analysis) [3]: none of the four analogs significantly increased repair
O=C1c2c(O)ccc(O)c2C(=O)c2c(NCCNCCO)ccc(NCCNCCO)c21 [Mitoxantrone] | 13.2 | 7 | –
C[C@@](Cc1ccc(O)c(O)c1)(NN)C(=O)O [carbidopa, Carbidopa] | – | – | colony formation compared to vehicle control ([4]; 10 μM): no significant effect on colony formation; colony formation compared to vehicle control ([4]; 20 μM): no significant effect on colony formation; colony formation compared to vehicle control ([5]; 10 μM): no significant effect on colony formation; colony formation compared to vehicle control ([5]; 20 μM): no significant effect on colony formation; identified as hit in the screen (enhanced BER of ODD) [1]: did not identify carbidopa as a hit; repair activity compared to the vehicle control ([2]; 10 μM): no effect on repair activity; repair activity compared to the vehicle control ([2]; 20 μM): no effect on repair activity
